In publication PMC6344862, “Hexameric assembly of the AAA+ protein McrB is necessary for GTPase activity” (Nucleic Acids Research, 2018):
One block for each molecule: values may come before it.

Tests used:
McrBC = molecular target: T1, McrBC (Escherichia coli, UniProt P15005); experiment: steady-state intrinsic tryptophan fluorescence; type: binding; details: 0.5 uM McrB, 0.125 uM McrC, 1 mM nucleotide, 5 mM MgCl2, pH 8, 25 C
T1 construct: gene mcrB; full-length McrB with C-terminal Gly-Ser-His6 plus untagged McrC, mixed 4:1 or SEC-purified complex; tetradecamer 734 kDa; with Type IV methyl-directed restriction enzyme EcoKMcrBC (5-methylcytosine-specific restriction enzyme subunit McrC)

McrB [1] = molecular target: T2, McrB (Escherichia coli, UniProt P15005); experiment: steady-state intrinsic tryptophan fluorescence; type: binding; details: 0.5 uM McrB, 1 mM nucleotide, 5 mM MgCl2, pH 8, 25 C
McrBΔN [2] = molecular target: T3, McrBΔN (Escherichia coli, UniProt P15005); experiment: electron cryomicroscopy 2D class averages, hexamer; type: binding; details: 1 mM GDPNP, 1 mM MgCl2, pH 7.4
T3 construct: gene mcrB; C-terminal Gly-Ser-His6 tag (untagged version for SAXS)

McrB [3] = molecular target: T2, McrB; experiment: SEC, nucleotide-induced oligomerisation; type: binding; details: 18 uM protein, MgCl2, pH 8
McrB [4] = molecular target: McrB (Escherichia coli, UniProt P15005, E280A); experiment: SEC-MALS, hexamer with nucleotide; type: binding; details: 18 uM protein
McrBΔN [5] = molecular target: T3, McrBΔN; experiment: SEC, nucleotide-induced oligomerisation; type: binding; details: 18 uM protein, MgCl2, pH 8
McrB [6] = molecular target: McrB (Escherichia coli, UniProt P15005, E280Q); experiment: SEC-MALS, hexamer with nucleotide; type: binding; details: 18 uM protein
McrBΔN [7] = molecular target: T3, McrBΔN; experiment: malachite green GTPase; SEC and SEC-MALS oligomerisation; type: biochemical; details: 1 mM GTP, 15 mM MgCl2, 50 mM KCl, pH 8, 37 C
McrBΔN [8] = molecular target: T3, McrBΔN; experiment: SAXS of nucleotide-dependent hexamer; type: binding; details: McrBΔN without His-tag, 1 mg/ml
McrBΔNC = molecular target: T4, McrBΔNC (Escherichia coli, UniProt P15005); experiment: SAXS of nucleotide-dependent tetradecamer; type: binding; details: 1 mg/ml protein
T4 construct: gene mcrB; McrB residues 162-460 (without His6 tag for SEC-MALS and SAXS) plus untagged McrC; tetradecamer 500 kDa; with Type IV methyl-directed restriction enzyme EcoKMcrBC (5-methylcytosine-specific restriction enzyme subunit McrC)

[9] = molecular target: McrBΔN^WT (McrBΔN without His6 tag) (Escherichia coli K12) (UniProt P15005); experiment: SAXS; 1 mg/ml protein in buffer B100 with GTPγS, 15°C, beamline B21 Diamond; mass by SAXSMoW2
[10] = molecular target: McrBΔN^WT (McrBΔN without His6 tag) (Escherichia coli K12) (UniProt P15005); experiment: SEC-MALS; Superose 6 10/300, 0.5 ml/min, 10 mM Tris-Cl pH 7.4, 100 mM NaCl, 1 mM MgCl2, 1 mM DTT, 0.1 mM GTP; McrBC and McrBΔNC complexes run at 0.6 mg/ml
[11] = molecular target: McrB (full length, C-terminal His6) (Escherichia coli K12) (UniProt P15005); experiment: as above

Molecule: Nc1nc2c(ncn2[C@@H]2O[C@H](COP(=O)(O)OP(=O)(O)NP(=O)(O)O)[C@@H](O)[C@H]2O)c(=O)[nH]1 [GDPNP]
Trp fluorescence increase (McrBC): ~ 15% | Trp fluorescence increase (McrB [1]): ~ 20% | electron cryomicroscopy 2D class averages, hexamer (McrBΔN [2]): Imaging of McrB or McrBΔN after the addition of GDPNP showed round particles

Molecule: Nc1nc2c(ncn2[C@@H]2O[C@H](COP(=O)(O)OP(=O)(O)O)[C@@H](O)[C@H]2O)c(=O)[nH]1 [GDP]
SEC, nucleotide-induced oligomerisation (McrB [3]): In presence of GTP or GDP, McrB and McrBΔN eluted as a high molecular mass oligomer | SEC-MALS, hexamer with nucleotide (McrB [4]): had a mass comparable to wild type McrB hexamer in presence of GTP or GDP | SEC, nucleotide-induced oligomerisation (McrBΔN [5]): In presence of GTP or GDP, McrB and McrBΔN eluted as a high molecular mass oligomer | SEC-MALS, hexamer with nucleotide (McrB [6]): had a mass comparable to wild type McrB hexamer in presence of GTP or GDP

Second part, led by results:

Trp fluorescence increase (McrBC; GTP hydrolysed by this complex): ~ 15% | Trp fluorescence increase (McrB [1]; weak GTPase without McrC): ~ 20%
Molecule: Nc1nc2c(ncn2[C@@H]2O[C@H](COP(=O)(O)OP(=O)(O)OP(=O)(O)O)[C@@H](O)[C@H]2O)c(=O)[nH]1 [GTP]
SEC-MALS, hexamer with nucleotide (McrB [4]): had a mass comparable to wild type McrB hexamer in presence of GTP or GDP | malachite green GTPase; SEC and SEC-MALS oligomerisation (McrBΔN [7]): only a weak GTPase activity for both McrB (Figure 5A) and McrBΔN | SEC-MALS, hexamer with nucleotide (McrB [6]): had a mass comparable to wild type McrB hexamer in presence of GTP or GDP

Trp fluorescence increase (McrBC): ~ 23% | Trp fluorescence increase (McrB [1]): ~ 30%
Molecule: Nc1nc2c(ncn2[C@@H]2O[C@H](COP(=O)(O)OP(=O)(O)OP(O)(O)=S)[C@@H](O)[C@H]2O)c(=O)[nH]1 [GTPγS]
SAXS of nucleotide-dependent hexamer (McrBΔN [8]): Good quality data was collected for McrBΔN and McrBΔNC in presence of the non-hydrolysable analogue GTPγS | SAXS of nucleotide-dependent tetradecamer (McrBΔNC): Good quality data was collected for McrBΔN and McrBΔNC in presence of the non-hydrolysable analogue GTPγS

copies of McrB in the complex [9]: 12 | copies of McrC in the complex [9]: 2 | copies of McrB in the complex [10]: 12 | copies of McrC in the complex [10]: 2 | copies of McrB in the complex [11]: 12 | copies of McrC in the complex [11]: 2
B1: McrC (natural protein)
chain: MEQPVIPVRNIYYMLTYAWGYLQEIKQANLEAIPGNNLLDILGYVLNKGVLQLSRRGLELDYNPNTEIIPGIKGRIEFAKTIRGFHLNHGKTVSTFDMLNEDTLANRIIKSTLAILIKHEKLNSTIRDEARSLYRKLPGISTLHLTPQHFSYLNGGKNTRYYKFVISVCKFIVNNSIPGQNKGHYRFYDFERNEKEMSLLYQKFLYEFCRRELTSANTTRSYLKWDASSISDQSLNLLPRMETDITIRSSEKILIVDAKYYKSIFSRRMGTEKFHSQNLYQLMNYLWSLKPENGENIGGLLIYPHVDTAVKHRYKINGFDIGLCTVNLGQEWPCIHQELLDIFDEYLK
